ChEMBL document CHEMBL5441381, “ASAP - In vitro antiviral effect” (2024)

Tested on: SARS-CoV-2
Test: Functional immunofluorescence assay to measure dose dependent changes in antiviral-drug inhibitory efficacy against hCoV-19/USA-WA1/2020 in HeLa-ACE2 cells which are seeded prior to drug treatment, then infected with hCoV-19/USA-WA1/2020. Cells are fixed with 10 % formaldehyde, washed with PBS, permeabilized with permeabilization buffer, then washed with wash buffer. The cells are incubated with nucleoprotein primary antibody IC7C7. Following primary staining, cells are washed with wash buffer and incubated in a solution of with Alexa fluor 488 and DAPI. Infected and uninfected cells are visualized and analyzed by Gen5 software. The assay has been performed by Icahn School of Medicine at Mount Sinai.
Type: organism-based, Homo sapiens
Details: for EC50: Severe acute respiratory syndrome coronavirus 2, HeLa-ACE2

## CCNC(=O)c1cc2c(N[C@@H](c3ccc4c(c3)S(=O)(=O)CCO4)C(C)C)ncnc2[nH]1
  EC50: > 20 µM
Severe acute respiratory syndrome coronavirus 2, HeLa-ACE2, Baseline response 0 %, Hill slope -0.398, Maximum measured 111.753 %, Maximum response 100 %, Minimum measured 79.377 %, R squared 0.175
  EC90: > 20 µM

## Cc1nn(C)cc1-c1cc2c(N[C@@H](c3ccc4c(c3)S(=O)(=O)CCC4)C(C)C)ncnc2[nH]1
  EC50: > 20 µM
Severe acute respiratory syndrome coronavirus 2, HeLa-ACE2, Maximum measured 131.643 %, Minimum measured 93.649 %
  EC90: > 20 µM

## CCNC(=O)c1cc2c(N[C@@H](c3ccc4c(c3)S(=O)(=O)CCC4)C(C)C)ncnc2[nH]1
  EC50: > 20 µM
Severe acute respiratory syndrome coronavirus 2, HeLa-ACE2, Baseline response 0 %, Hill slope -4.495, Maximum measured 108.517 %, Maximum response 100 %, Minimum measured 90.612 %, R squared 0.096
  EC90: > 20 µM

## CNC(=O)c1cccc(-c2cc3c(N[C@@H](c4ccc5c(c4)S(=O)(=O)CCC5)C(C)C)ncnc3[nH]2)c1
  EC50: > 20 µM
Severe acute respiratory syndrome coronavirus 2, HeLa-ACE2, Baseline response 0 %, Hill slope -1.505, Maximum measured 108.746 %, Maximum response 100 %, Minimum measured 56.34 %, R squared 0.642
  EC90: > 20 µM

## CC(C)[C@@H](Nc1ncnc2[nH]c(-c3cnn(C)c3)cc12)c1ccc2c(c1)S(=O)(=O)NCC2
  EC50: > 20 µM
Severe acute respiratory syndrome coronavirus 2, HeLa-ACE2, Baseline response 0 %, Hill slope -6.715, Maximum measured 105.419 %, Maximum response 100 %, Minimum measured 69.993 %, R squared 0.42
  EC90: > 20 µM

## CC(C)[C@H](Nc1ncnc2[nH]c(-c3cnn(C)c3C#N)cc12)c1ccc2c(c1)S(=O)(=O)CCC2
  EC50: 6.21 µM
Severe acute respiratory syndrome coronavirus 2, HeLa-ACE2, Baseline response 0 %, Hill slope -14.93, Maximum measured 129.006 %, Maximum response 100 %, Minimum measured 5.734 %, R squared 0.877
  EC90: 7.19 µM

## CC(C)(C)[C@H](Nc1ncnc2[nH]c(-c3cnn(CC(N)=O)c3)cc12)c1ccc2c(c1)OCCO2
  EC50: > 20 µM
Severe acute respiratory syndrome coronavirus 2, HeLa-ACE2, Baseline response 0 %, Hill slope -0.655, Maximum measured 108.484 %, Maximum response 100 %, Minimum measured 91.129 %, R squared 0.123
  EC90: > 20 µM

## CNCc1cc(-c2cc3c(N[C@H](c4ccc5c(c4)S(=O)(=O)CCC5)C(C)C)ncnc3[nH]2)co1
  EC50: 11.1 µM
Severe acute respiratory syndrome coronavirus 2, HeLa-ACE2, Baseline response 0 %, Hill slope -0.715, Maximum measured 94.818 %, Maximum response 100 %, Minimum measured 27.713 %, R squared 0.683
  EC90: > 20 µM

## CC(C)[C@H](Nc1ncnc2[nH]c(-c3cnn(C)c3C#N)cc12)c1ccc2c(n1)NC(=O)CO2
  EC50: 0.858 µM
Severe acute respiratory syndrome coronavirus 2, HeLa-ACE2, Baseline response 0 %, Hill slope -0.619, Maximum measured 70.604 %, Maximum response 100 %, Minimum measured 3.388 %, R squared 0.805
  EC90: > 20 µM

## CC(C)[C@@H](Nc1ncnc2[nH]ccc12)c1ccc2c(c1)S(=O)(=O)CCO2
  EC50: > 20 µM
Severe acute respiratory syndrome coronavirus 2, HeLa-ACE2, Baseline response 0 %, Hill slope -0.245, Maximum measured 99.283 %, Maximum response 100 %, Minimum measured 83.757 %, R squared 0.186
  EC90: > 20 µM

## COc1ccc([C@@H](Cc2nnn[nH]2)NC(=O)c2ncnc3[nH]ccc23)cc1
  EC50: > 20 µM
Severe acute respiratory syndrome coronavirus 2, HeLa-ACE2, Maximum measured 136.92 %, Minimum measured 93.837 %
  EC90: > 20 µM

## CC(C)[C@H](Nc1ncnc2[nH]c(-c3cnn(C)c3C#N)cc12)c1ccc2c(c1)NC(=O)CO2
  EC50: 1.33 µM
Severe acute respiratory syndrome coronavirus 2, HeLa-ACE2, Baseline response 0 %, Hill slope -0.558, Maximum measured 72.17 %, Maximum response 100 %, Minimum measured 6.652 %, R squared 0.72
  EC90: > 20 µM

## CCNC(=O)c1cc2c(N[C@@H](c3ccc4c(c3)S(=O)(=O)NCC4)C(C)C)ncnc2[nH]1
  EC50: > 20 µM
Severe acute respiratory syndrome coronavirus 2, HeLa-ACE2, Maximum measured 101.15 %, Minimum measured 78.382 %
  EC90: > 20 µM

## CC(C)[C@H](Nc1ncnc2[nH]c(-c3cnn(C)c3)cc12)c1ccc2c(c1)S(=O)(=O)CCC2
  EC50: > 20 µM
Severe acute respiratory syndrome coronavirus 2, HeLa-ACE2, Baseline response 0 %, Hill slope -1.829, Maximum measured 111.115 %, Maximum response 100 %, Minimum measured 52.798 %, R squared 0.593
  EC90: > 20 µM
